Reference: US11981711B2, “Methods of treating spinal cord injury using a chondroitin sulfate proteoglycan (CSPG) reduction peptide (CRP) comprising a cell membrane penetrating domain, a CSPG binding domain, and a lysosome targeting domain” (The Cleveland Clinic Foundation, priority 2017, dated 2024)

Key:
[1] = test system: spinal cord injury (SCI); assay: Bladder function after chronic SCI, CRP from two months after SCI; type: in vivo, rat
From the text: (§1) In this Example, the CRP has been applied in a preclinical rat model to test the efficacy of the treatment of spinal cord injury (SCI). The injury was made at thoracic 8 level using contusive injury device. The contusive SCI is the most clinical relevance among all experimental SCI models. We have assessed both motor and bladder control as functional outcomes and analyzed anatomical evidences to support these findings. We also selected sub-acute phase (ONE-DAY after SCI) and chronic phase (TWO-MONTHs after SCI) to start our treatment.
(§2) The above were followed up with studies to evaluate the treatment effects of CRP in chronic SCI. The chronic SCI is not only way more challenge to be repaired but also is the clinical status of the majority of patients with SCI.
The box area indicates the bursting activity.

[2] = test system: spinal cord injury (SCI); assay: Locomotion and gait after T8 contusive SCI, sub-acute CRP treatment; type: in vivo, rat
From the text: as §1
(§3) Furthermore CRP can efficiently improve locomotion and bladder electromyography (EMG) activities and voiding patterns after SCI.
In particular, FIG. 26A-G show Kinematics assessment in SCI rats. (A) Representative total of hindlimb movement trajectories for spinal-intact, SCI+scrambled peptide (scr) and SCI+CRP groups at 3 months post-SCI. […] N=6 to 8 per group.

[3] = test system: spinal cord injury (SCI); assay: Bladder function (voiding, CMG, EUS EMG) after T8 contusive SCI, sub-acute CRP treatment; type: in vivo, rat
From the text: as §1, §3
(A) Representative cystometrograms (CMG) with micturition (voiding) events (indicated by asterisk) for spinal-intact, SCI+scrambled peptide (scr) and SCI+CRP groups at 3 months post-SCI. […] N=6 to 8 per group.
(A) Representative cystometrograms (CMG) with external urethral sphincter (EUS) electromyogram (EMG) recordings at micturition events for spinal-intact, SCI+scrambled peptide (scr) and SCI+CRP groups at 3 months post-SCI. […] The red dot indicates bursting activity. **, P<0.01; ***, P<0.001 when compared to the spinal-intact group; +, P<0.05, ++, P<0.01; +++, P<0.001 when compared to the scr group. N=6 to 8 per group.

[4] = test system: Neu7-produced CSPGs; assay: Reduction of CSPG produced by Neu7 cells; type: cell-based
[5] = test system: serotonin (5-HT) fibers and traced fibers from brain stem and red nuclei; assay: Axon sprouting below the lesion after SCI, sub-acute CRP treatment; type: in vivo, rat
From the text: as §3
In particular, 5HT immunoreactivity in lumbosacral level after SCI. […] (G, H) Representative images with double staining of […]

[6] = test system: spinal cord injury (SCI); assay: Locomotion (BBB 21-point score) and gait after chronic SCI, treatment from two months after SCI; type: in vivo, rat
From the text: Basso, Beattie, and Bresnahan (BBB) 21-point scoring test is used as the locomotion assessment after SCI. SCI causes significant deficits on locomotion function as indicated by the significant drop of BBB scores from 21 of the normal rats. […] However, ISP treatment slightly decreases BBB scores from 11.667±0.211 (two months after SCI) to 11.00±0.577 (two months plus 42 days after SCI) (A).
as §1, §2

[7] = test system: perineuronal nets (PNN); assay: PNN (WFA) in lumbar cord after chronic SCI; type: in vivo, rat
[8] = test system: sciatic nerve injury; assay: Gait after complete sciatic nerve transection with peripheral nerve allograft, CRP treatment; type: in vivo; settings: 3 months after complete sciatic nerve transection, subcutaneous once per day, vs vehicle
From the text: The representative 2D trajectory and improved kinematics parameters indicated CRP treated animals improved the stepping more toward to what the uninjured limb did, while compared to the vehicle treated animals. The CRP was delivered through subcutaneous injection near the injured site (once per day) staring immediately after surgery for 3 months.

[9] = test system: 5HT fibers; assay: 5HT fiber sprouting in lumbar cord after chronic SCI; type: in vivo, rat; settings: vs scrambled peptide
[10] = test system: perineuronal nets (PNN); assay: Perineuronal nets (WFA staining) in lumbosacral spinal cord after T8 SCI; type: in vivo, rat; settings: 3 months post SCI; vs scrambled peptide
From the text: (A, B) Representative L4 spinal cord transverse images show CRP treatment reduces overall PNN in grey matter of lumbar spinal cord neurons at 3 months post SCI. Notice areas with clear decreased WFA staining of the PNN (asterisk). […] (E, F) Representative higher power immunostaining images of the ventral horn of
transverse L4 sections show the strong PNN intensity (arrow) surrounding the NeuN+ cells in scr treated SCI rats (E), while CRP treatment reduces them (F). *, P<0.05 when compared to the scr treatment. N=8 per group.

[11] = test system: chondroitin sulfate proteoglycan (CSPG); assay: CSPG expression around the spinal cord lesion after contusive SCI, treatment from one day after SCI; type: in vivo, rat; settings: for CSPG in lesion epicenter and adjacent tissue: two weeks after contusive SCI, treatment starting one day after SCI, vs vehicle
From the text: as §1, §3

[12] = test system: spinal cord injury (SCI); assay: Urodynamic analyses (CMG, EUS EMG) after T8 contusive SCI, SRP treatment; type: in vivo, rat; settings: 3 months post-SCI
Description: (§4) In this Example, the SRP has been applied in a preclinical rat model to test the efficacy of the treatment of spinal cord injury (SCI) in a manner similar to Example 1 above for CRP.
Animals were treated daily with SRP for one month, beginning one day after SCI. Urodynamic analyses were conducted 3 months post-SCI. […] EUS EMG recording were conducted 3 months post-SCI.

[13] = target: T1, SOCS1 (Rattus norvegicus, UniProt Q9QX78); assay: SOCS1 protein level in spinal cord after SCI, SRP treatment; type: in vivo; settings: 7 days after SCI; once per day beginning one day after SCI
T1 construct: from tissue; host or cells: rat spinal cord
T1 sequence (Q9QX78 1-212): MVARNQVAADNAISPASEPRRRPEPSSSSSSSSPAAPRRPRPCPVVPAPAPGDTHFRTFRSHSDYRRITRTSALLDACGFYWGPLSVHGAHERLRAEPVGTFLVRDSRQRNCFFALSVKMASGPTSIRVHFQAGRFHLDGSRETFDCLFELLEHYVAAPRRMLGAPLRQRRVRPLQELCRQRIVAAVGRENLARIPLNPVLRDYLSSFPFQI

[14] = target: T2, SOCS3 (Rattus norvegicus, UniProt O88583); assay: SOCS3 level in sciatic nerve after sciatic nerve transection, SRP treatment; type: in vivo; set-up: from tissue; host or cells: sciatic nerve; settings: once per day for 4 consecutive days beginning immediately after transection; vs scrambled peptide
T2 sequence (O88583 1-225): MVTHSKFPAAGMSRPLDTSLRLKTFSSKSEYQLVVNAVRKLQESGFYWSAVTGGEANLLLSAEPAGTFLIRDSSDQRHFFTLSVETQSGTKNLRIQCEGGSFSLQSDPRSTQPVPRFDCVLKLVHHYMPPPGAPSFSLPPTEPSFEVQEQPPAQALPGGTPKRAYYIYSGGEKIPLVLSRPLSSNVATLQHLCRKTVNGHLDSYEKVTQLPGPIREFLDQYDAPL

[15] = test system: spinal cord injury (SCI); assay: BBB open field locomotion test after T8 contusive SCI, SRP treatment; type: in vivo, rat; settings: subcutaneous daily for one month beginning one day after SCI; vs scrambled peptide; entire observation period
From the text: as §4
Animals were subcutaneously injected with SRP daily for one month beginning one day after SCI and assessed by the BBB open field locomotion test to evaluate hind limb motor function at the designated time points. […] Values represent mean±SEM.

[16] = test system: TBK1 and mitophagy adaptors; assay: TBK1 and mitophagy adaptors in spinal cord after SCI, SRP treatment; type: in vivo, rat; settings: vs scrambled peptide
From the text: (A). Graphs represented mean±SEM of six samples per group for the % to GAPDH (B). *p<0.05, **p<0.01 and ***p<0.001 compared to scrambled peptide animals (two-tailed t test, n=3 per group).

[17] = test system: ED1+macrophages/microglia; assay: Double immunolabeling of ED1 and GFAP in spinal cord after SCI, SRP treatment; type: in vivo, rat; settings: three months post-SCI, vs scrambled peptide
Description: SRP treatment beginning one day after SCI was administered for 30 consecutive days and then spinal cords were harvested three months post-SCI for double immunolabeling of ED1 and GFAP.

[18] = test system: arginase 1, iNOS, TNF-α; assay: qRT-PCR of markers for pro- vs. anti-inflammatory macrophages in spinal cord segments caudal to injury; type: in vivo, rat; settings: vs scrambled peptide
Description: Rats were treated once per day beginning one day after SCI with SRP or scrambled peptide (scr) and mRNA was then harvested and analyzed by qRT-PCR. […] C.

[19] = target: T2, SOCS3; assay: SOCS3 protein level in spinal cord after SCI, SRP treatment; type: in vivo; set-up: from tissue; host or cells: rat spinal cord (epicenter and caudal segments); settings: 7 days after SCI; once per day beginning one day after SCI; vs scrambled peptide
From the text: as §4
(§5) Graphs represent mean±SEM of five samples per group for the ratios of SOCS3 to actin (B) and p-STAT3 to STAT3 (C). +p<0.05, ++p<0.01, and +++p<0.001 compared to normal animals, and *p<0.05 and ***p<0.001 compared to scrambled peptide animals (two way ANOVA with Bonferroni multiple analyses).

[20] = test system: STAT3; assay: STAT3 activation (phospho-STAT3 Tyr705) in spinal cord after SCI, SRP treatment; type: in vivo, rat; settings: 7 days after SCI; once per day beginning one day after SCI
From the text: as §5

[21] = test system: spinal cord injury (SCI); settings: cited from earlier work
[22] = 3 months post-SCI, T8 SCI, vs scrambled peptide
[23] = 5 months post SCI vs two months post SCI (beginning of treatment)
[24] = two months after SCI (start of treatment)
[25] = two months plus 42 days after SCI, treatment starting two months after contusive SCI
[26] = once per day beginning one day after SCI

YGRKKRRQRRR-PKPRVTWNKKGKKVNSQRF-KFERQKILDQRFFE (NYGRKKRRQRRRPKPRVTWNKKGKKVNSQRFKFERQKILDQRFFEC) [CRP]
hyperactive bladder (CMG) ([1]; 3 months of treatment starting at 2 months post SCI): reduce hyperactive bladder
EUS bursting activity during the void period ([1]; chronic SCI, vs scrambled peptide): improve EUS bursting activity
voiding patterns ([1]; subcutaneous injection beginning two-month after SCI): significantly improves
gait pattern parameters (kinematics, hindlimb trajectories) ([2]; 3 months post-SCI, vs scrambled peptide): significantly improved several parameters of gait pattern
motor function recovery ([2]; out to 91 days post-contusion, sub-acute treatment): significantly promotes motor function recovery
EUS bursting activity (EUS EMG during the void) [3, 22]: improves EUS bursting activity
bladder capacity (CMG) [3, 22]: smaller bladder capacity
hyperactive bladder (CMG) [3, 22]: reduces hyperactive bladder
voiding pressure (CMG) [3, 22]: lower voiding pressure
number and amplitude of non-voiding contraction (overactive bladder) ([3]; after SCI, sub-acute treatment): reduction of both the number and amplitude of non-voiding contraction
residual volume and volume per void ([3]; after SCI, sub-acute treatment): reducing residual volume and volume per void toward normal condition
voiding patterns ([3]; after SCI, sub-acute treatment): improves voiding patterns
external urethral sphincter (EUS) activity: number of burst, EMG amplitude, coordination with detrusor contraction ([3]; during the void period, sub-acute treatment): improving external urethral sphincter (EUS) activity
dosage dependence of CSPG reduction ([4]; Neu7 cells): dosage response
CSPG produced by Neu7 cells ([4]; compared with ChABC): significantly reduces CSPG produced by Neu7 cells
nerve sprouting below lesion from neuron in brain stem and red nucleic ([5]; after SCI, sub-acute treatment): enhances nerve sprouting below lesion
sprouting of serotonin (5-HT) fibers below lesion ([5]; after SCI, sub-acute treatment): enhances sprouting of serotonin (5-HT) fibers
immunoreactivity of 5HT fibers at L4 and L6/S1 levels ([5]; severe contusive SCI, vs scrambled peptide): significantly increases immunoreactivity of 5HT fibers
BBB locomotion scale [6, 23]: significant increases in BBB locomotion scale
stepping kinematic of both hindlimbs (2D trajectory patterns) [6, 23]: improved stepping kinematic of both hindlimbs
average increases in BBB scores ([6]; by two months plus 42 days after SCI, treatment starting two months after SCI): 3.0±0.365
BBB score [6, 24]: 11.75±0.164
BBB score [6, 25]: 14.33±0.211
PNN (WFA+) in lumbar cord [7]: robustly decreased PNN
stepping performance of hindlimbs [8]: improved the stepping performance of hindlimbs
5HT+ nerve fibers sprouting in lumbosacral level [9]: enhance 5HT+ nerve fibers sprouting
PNN at L4 and L6/S1 levels [10]: significant reduction of PNN
CSPG ([11]; three months after SCI, sub-acute treatment): significantly decreased CSPG
CSPG in lesion epicenter and adjacent tissue [11]: significantly decreases SCI-induced increases in CSPG

YGRKKRRQRRR-VQpYSTVVHS-KFERQKILDQRFFE [SRP]
bladder hyperactivity (CMG) ([12]; daily for one month beginning one day after SCI): significantly reduced bladder hyperactivity
EUS EMG bursting activity during the void period ([12]; vs scrambled peptide): improvement in bursting activity
non-voiding contraction amplitude ([12]; vs scrambled peptide): significantly reduced
number of non-voiding contractions ([12]; vs scrambled peptide): significantly reduced
residual volume ([12]; vs scrambled peptide): significantly reduced
SOCS1 level [13]: not significantly altered
sciatic nerve transection-upregulated SOCS3 [14]: significantly reduced
hind limb locomotion (BBB) [15]: significant improvement in hind limb locomotion
TBK1 protein level [16, 26]: significantly increased
optineurin protein level [16, 26]: significantly increased
phospho-TBK1 Ser172 (p-TBK1) [16]: significant activation of TBK1 and p62
phosphor-p62 Ser403 (p-p62) [16]: significant activation of TBK1 and p62
SCI-increased ED1+macrophages/microglia ([17]; treatment for 30 consecutive days beginning one day after SCI): blocked SCI-induced upregulation of ED1+macrophages
GFAP+tissues surrounding the lesion epicenter [17]: preserved more GFAP+tissues
arginase 1 expression (mRNA) ([18]; 7 and 14 days post-SCI): increased
iNOS expression (mRNA) ([18]; 7 and 14 days post-SCI): decreased
TNF-α expression (mRNA) ([18]; 7 days post-SCI): decreased
SCI-upregulated SOCS3 (ratio of SOCS3 to actin) [19]: significantly reduced
phospho-STAT3 Tyr705 (p-STAT3 to STAT3) [20]: significant activation of STAT3

intracellular sigma peptide [ISP, reference compound]
functional recovery after SCI ([21]; applied immediately after SCI in rats): minor effects on promoting functional recovery
effect on chronic SCI ([21]; applied two-month after SCI): no effects on chronic SCI
effect on CSPG in vivo ([21]; background statement): no effects on CSPG
BBB score [6, 24]: 11.667±0.211
BBB score [6, 25]: 11.00±0.577
CSPG in lesion epicenter and adjacent tissue [11]: does not decrease CSPG
